Reference: patent publication US20040102423A1, “Spironolactone and angiotensin II antagonist combination therapy for treatment of congestive heart failure” (G.D. Searle & Co., priority 1995, published 2004)

Assays:
[1] = molecular target: angiotensin II AT1 receptor; assay: Assay A: Angiotensin II binding activity, rat uterine membrane preparation, 125I-AII displacement
rabbit aortic rings = assay: Assay B: In vitro vascular smooth muscle response for AII (antagonist activity, pA2); type: cell-based; details: Oryctolagus cuniculus, two values in a cell = two determinations
Description: Assay B: In Vitro Vascular Smooth Muscle-Response for AII
The compounds of the invention were tested for antagonist activity in rabbit aortic rings. Male New Zealand white rabbits (2-2.5 kg) were sacrificed using an overdose of pentobarbital and exsanguinated via the carotid arteries. The thoracic aorta was removed, cleaned of adherent fat and connective tissue and then cut into 3-mm ring segments. The endothelium was removed from the rings by gently sliding a rolled-up piece of filter paper into the vessel lumen. The rings were then mounted in a water-jacketed tissue bath, maintained at 37° C., between moveable and fixed ends of a stainless steel wire with the moveable end attached to an FT03 Grass transducer coupled to a Model 7D Grass Polygraph for recording isometric force responses. The bath was filled with 20 ml of oxygenated (95% oxygen/5% carbon dioxide) Krebs solution of the following composition (mM): 130 NaCl, 15 NaHCO3, […], 1.2 NaH2PO4, 1.2 MgSO4, 2.5 CaCl2, and 11.4 glucose. The preparations were equilibrated for one hour before approximately one gram of passive tension was placed on the rings. Angiotensin II concentration-response curves were then recorded (3×10^−10 to 1×10^−5 M). Each concentration of AII was allowed to elicit its maximal contraction, and then AII was washed out repeatedly for 30 minutes before rechallenging with a higher concentration of AII. Aorta rings were exposed to the test antagonist at 10^−5 M for 5 minutes before challenging with AII. Adjacent segments of the same aorta ring were used for all concentration-response curves in the presence or absence of the test antagonist. The effectiveness of the test compound was expressed in terms of pA2 values and were calculated according to H. O. Schild [Br. J. Pharmacol. Chemother., 2, 189-206 (1947)]. The pA2 value is […] which increases the EC50 value for AII by a factor of two. Each test antagonist was evaluated in aorta rings from two rabbits.

pressor response to AII = assay: Assay C: In vivo intragastric pressor assay response for AII antagonists; parameters: species or system Sprague-Dawley rats; details: in vivo pressor response

Row | SMILES | IC50 [1] | Kb (rabbit aortic rings) | other results
1 | COC(=O)CC[C@]1(O)CC[C@H]2[C@@H]3[C@H](C(=O)OC)CC4=CC(=O)CC[C@]4(C)C34O[C@@H]4C[C@@]21C (some centres unmarked) [Compound 2] | 95 nM | 42.7 nM | inhibition in vivo at 10 mg/kg (pressor response to AII; Rattus norvegicus, intraduodenal, 10 mg/kg intraduodenally): 95%; inhibition in vivo at 30 mg/kg (pressor response to AII; Rattus norvegicus, intraduodenal, 30 mg/kg intraduodenally, read-out: Assay C Inhibition): 98%; Assay C Duration (pressor response to AII; 10 mg/kg intraduodenally): 60 min; Assay C Duration (pressor response to AII; 30 mg/kg intraduodenally): 90 to 120 min
2 | CCCCCCn1nc(CCCC)n(Cc2ccc(-c3ccccc3-c3nn[nH]n3)cc2)c1=O [Compound 96] | 21 nM | 10 nM | –
3 | CCCCc1nn(CC(=O)OCC)c(=O)n1Cc1ccc(-c2ccccc2-c2nn[nH]n2)cc1 [Compound 97] | 280 nM | 20 nM | –
4 | CCCCc1nn(CC(=O)O)c(=O)n1Cc1ccc(-c2ccccc2-c2nn[nH]n2)cc1 [Compound 98] | 22 nM | 7.94 nM | –
5 | CCCCc1nn(Cc2cccc3ccccc23)c(=O)n1Cc1ccc(-c2ccccc2-c2nn[nH]n2)cc1 [Compound 99] | 280 nM | 316 nM | –
6 | CCCCc1nn(CCC2CCCCC2)c(=O)n1Cc1ccc(-c2ccccc2-c2nn[nH]n2)cc1 [Compound 100] | 4.4 nM | 0.398 nM | –
7 | CCCCCn1nc(CCCC)n(Cc2ccc(-c3ccccc3-c3nn[nH]n3)cc2)c1=O [Compound 101] | 36 nM | 15.8 nM | –
8 | CCCCc1nn(CC(OCC(=O)O)c2ccccc2)c(=O)n1Cc1ccc(-c2ccccc2-c2nn[nH]n2)cc1 (centres unmarked) [Compound 102] | 43 nM | 20 nM | –
9 | CCCCc1nn(CCC(C)CC(C)(C)C)c(=O)n1Cc1ccc(-c2ccccc2-c2nn[nH]n2)cc1 (centres unmarked) [Compound 103] | 12 nM | 10 nM | –
10 | CCCCc1nn(/C(Cc2ccccc2)=C(/OCc2ccccc2)c2ccccc2)c(=O)n1Cc1ccc(-c2ccccc2-c2nn[nH]n2)cc1 [Compound 104] | 15 nM | 10 nM | –
11 | CCCCc1nn(C(Cc2ccccc2)C(=O)c2ccccc2)c(=O)n1Cc1ccc(-c2ccccc2-c2nn[nH]n2)cc1 (centres unmarked) [Compound 105] | 290 nM | 251 nM | –
12 | CCCCc1nn(C(=O)CCC)c(=O)n1Cc1ccc(-c2ccccc2-c2nn[nH]n2)cc1 [Compound 106] | 48 nM | 20 nM | –
13 | CCCCc1nn(CC(=O)c2cc(OC)ccc2OC)c(=O)n1Cc1ccc(-c2ccccc2-c2nn[nH]n2)cc1 [Compound 107] | 180 nM | 5.01 nM | –
14 | CCCCc1nn(Cc2ccc3ccccc3c2)c(=O)n1Cc1ccc(-c2ccccc2-c2nn[nH]n2)cc1 [Compound 110] | 590 nM | 398 nM | –
15 | CCCCc1nn(C(CC(=O)OCC)C(=O)c2ccccc2)c(=O)n1Cc1ccc(-c2ccccc2-c2nn[nH]n2)cc1 (centres unmarked) [Compound 112] | 2000 nM | 6310 nM | –
16 | CCCCc1nn(CCCCC(=O)O)c(=O)n1Cc1ccc(-c2ccccc2-c2nn[nH]n2)cc1 [Compound 114] | 400 nM | 398 nM | –
17 | CCCCc1nn(C/C=C/c2ccccc2)c(=O)n1Cc1ccc(-c2ccccc2-c2nn[nH]n2)cc1 [Compound 116] | 230 nM | 316 nM | –
18 | CCCCn1nc(C(C#N)CCC)n(Cc2ccc(-c3ccccc3-c3nn[nH]n3)cc2)c1=O (centres unmarked) [Compound 117] | 170 nM | 316 nM | –
19 | CCCCc1nc2c(CCC)nnc(O)c2n1Cc1ccc(-c2ccccc2-c2nnn[nH]2)cc1 [Compound 124] | – | 0.38 nM | inhibition in vivo at 3 mg/kg (pressor response to AII; Rattus norvegicus, po, 3 mg/kg intragastrically): 45%; Assay C Duration (pressor response to AII; 3 mg/kg intragastrically): >180 min
20 | CCCCc1nc(Cc2ccc(-c3ccccc3C(=O)O)cc2)n(CCCC)n1 [Compound 137] | 220 nM | 5.01 nM | –
21 | CCCCc1nc(Cc2ccc(-c3ccccc3C(=O)O)cc2)nn1CCCC [Compound 138] | 130 nM | 6.31 nM | –
22 | CCCCc1nc(Cc2ccc(-c3ccccc3-c3nnn[nH]3)cc2)n(CCCC)n1 [Compound 139] | 0.27 nM | 501 nM | –
23 | CCCCc1nc(Cc2ccc(-c3ccccc3-c3nnn[nH]3)cc2)nn1CCCC [Compound 140] | 0.031 nM | 7.94 nM | –
24 | CCCCn1nc(C(F)(F)CCC)nc1Cc1ccc(-c2ccccc2-c2nnn[nH]2)cc1 [Compound 141] | 0.11 nM | 9.55 nM | –
25 | CCCCc1cn(CCCC)c(=O)n1Cc1ccc(-c2ccccc2-c2nnn[nH]2)cc1 [Compound 143] | 0.052 nM | 20 nM | –
26 | CCCCc1cn(CCc2ccccc2)c(=O)n1Cc1ccc(-c2ccccc2-c2nnn[nH]2)cc1 [Compound 144] | 0.088 nM | 20 nM | –

Row | SMILES | IC50 [1] | Kb (rabbit aortic rings) | other results
27 | CCCCc1cn(CCc2cccs2)c(=O)n1Cc1ccc(-c2ccccc2-c2nnn[nH]2)cc1 [Compound 145] | 0.48 nM | 200 nM | –
28 | CCCCc1cn(-c2ccccc2Cl)c(=O)n1Cc1ccc(-c2ccccc2-c2nnn[nH]2)cc1 [Compound 146] | 0.072 nM | 398 nM | –
29 | CCCc1cn(CCC)c(=O)n1Cc1ccc(-c2ccccc2-c2nnn[nH]2)cc1 [Compound 149] | 1.1 nM | 794 nM | –
30 | CCCCc1nc(CCCC)n(Cc2ccc(-n3c(Cl)cc(Cl)c3-c3nnn[nH]3)cc2)n1 [Compound 154] | 97 nM | 6.46 nM | –
31 | CCCCn1nc(/C=C/c2cccs2)nc1Cc1ccc(-c2ccccc2-c2nnn[nH]2)nc1 [Compound 165] | 410 nM | 126 nM | –
32 | CCCCCn1nc(CCCC)nc1Cc1ccc(-c2ccccc2-c2nnn[nH]2)nc1 [Compound 166] | 160 nM | 26.9 nM | –
33 | CCCCCc1nc(Cc2ccc(-c3ccccc3-c3nnn[nH]3)nc2)n(CCCC)n1 [Compound 167] | 370 nM | 83.2 nM | –
34 | CCCCc1nc(Cc2ccc(-c3ccccc3-c3nnn[nH]3)nc2)n(CC(CC)CC)n1 [Compound 168] | 420 nM | 20.4 nM | –
35 | CCCCn1nc(C(F)CCC)nc1Cc1ccc(-c2ccccc2-c2nnn[nH]2)nc1 (centres unmarked) [Compound 172] | 70 nM | 70.8 nM | –
36 | CCCCn1nc(C(F)F)nc1Cc1ccc(-c2ccccc2-c2nnn[nH]2)nc1 [Compound 174] | 180 nM | 51.3 nM | –
37 | CCCn1nc(C(F)(F)CC)nc1Cc1ccc(-c2ccccc2-c2nnn[nH]2)nc1 [Compound 178] | 88 nM | 28.8 nM | –
38 | CCCCn1nc(C(F)(F)CC)nc1Cc1ccc(-c2ccccc2-c2nnn[nH]2)nc1 [Compound 179] | 310 nM | 214 nM | –
39 | CCCCn1nc(C(=O)NC(C)(C)C)nc1Cc1ccc(-c2ccccc2-c2nnn[nH]2)nc1 [Compound 184] | 1100 nM | 166 nM | –
40 | CCCCn1nc(C(C)=O)nc1Cc1ccc(-c2ccccc2-c2nnn[nH]2)nc1 [Compound 194] | 47 nM | 22.9 nM | –
41 | CCCCc1cn(-c2ccccc2Cl)c(=O)n1Cc1ccc(-c2ccccc2-c2nnn[nH]2)nc1 [Compound 227] | 89 nM | 28.2 nM | –
42 | CCCCc1cn(-c2c(C)cccc2C)c(=O)n1Cc1ccc(-c2ccccc2-c2nnn[nH]2)nc1 [Compound 233] | 84 nM | 3.09 nM | –
43 | CCCCc1cn(CCCC)c(=O)n1Cc1ccc(-c2ncccc2-c2nnn[nH]2)cc1 [Compound 235] | 34 nM | 72.4 nM | –
44 | CCCCc1cn(-c2c(C)cc(C(C)(C)C)cc2C)c(=O)n1Cc1ccc(-c2ccccc2-c2nnn[nH]2)nc1 [Compound 244] | 150 nM | 67.6 nM | –
45 | CCCCc1cn(-c2c(C(C)C)cccc2C(C)C)c(=O)n1Cc1ccc(-c2ccccc2-c2nnn[nH]2)nc1 [Compound 246] | 72 nM | 34.7 nM | –
46 | CCCc1nc(CCC)n(Cc2ccc(-c3ccccc3-c3nnn[nH]3)nc2)n1 [Compound 257] | 160 nM | 234 nM | –
47 | CCCCc1nc(C(F)(F)CCC)nn1Cc1ccc(-c2ccccc2-c2nnn[nH]2)nc1 [Compound 258] | 350 nM | 145 nM | –
48 | CCCCc1nc(CC(CC)CC)nn1Cc1ccc(-c2ccccc2-c2nnn[nH]2)nc1 [Compound 262] | 530 nM | 603 nM | –
49 | CCCCc1nc(-c2ccccc2OC)n(Cc2ccc(-c3ccccc3-c3nnn[nH]3)nc2)n1 [Compound 277] | 190 nM | 288 nM | –
50 | CCCCc1nc(-c2ccccc2Cl)n(Cc2ccc(-c3ccccc3-c3nnn[nH]3)nc2)n1 [Compound 279] | 270 nM | 8.71 nM | –
51 | CCCCc1nc(-c2c(F)cccc2F)nn1Cc1ccc(-c2ccccc2-c2nnn[nH]2)nc1 [Compound 280] | 480 nM | 389 nM | –
